Test results published in ChEMBL document CHEMBL3885861, “Open TG-GATES”.

Organism: Rattus norvegicus
Experiment: Open TG-GATES - Regimen: Daily Repeat
Type: toxicity, organism-based, Sprague-Dawley
Parameters: regimen Daily Repeat, gender Male, age 6 weeks
Conditions: in vivo, po, 3 mg/kg, […], route gavage, dose level Low; for KIDNEY_L / KIDNEY_R / KIDNEY_TOTAL: tissue Kidney; for LIVER: tissue Liver; for A/G / ALP / ALT / AST / BUN / CRE / Ca / Cl / DBIL / GLC / IP / K / LDH / Na / PL / RALB / TBIL / TC / TG / TP / gamma-GTP: tissue Plasma

## CN(C)CCC(c1ccc(Cl)cc1)c1ccccn1 (stereo unspecified) [CHLORPHENIRAMINE]
Tissue Blood, time 28 day
  Lym: 77.4%
  MCH: 19 pg
  MCHC: 33.5%
  MCV: 56.8 fL
  Mono: 2.4%
  Neu: 18%
  PT: 14.5 s
  Plat: 107.8 x10_4/uL
  RBC: 819.6 x10_4/ul
  Ret: 2.4%
  WBC: 82.8 x10_2/uL
Time 7 day
  KIDNEY_L: 1.1 g
  KIDNEY_R: 1.1 g
  KIDNEY_TOTAL: 2.2 g
  LIVER: 12.6 g
  A/G: 0.8
  ALP: 1694.2 IU/L
  ALT: 41.6 IU/L
  AST: 68 IU/L
  BUN: 15.6 mg/dL
  CRE: 0.2 mg/dL
  Ca: 11.4 mg/dL
  Cl: 106.2 meq/L
  DBIL: 0.014 mg/dL
  GLC: 194 mg/dL
  IP: 7.7 mg/dL
  K: 4.2 meq/L
  LDH: 93 IU/L
  Na: 144 meq/L
  PL: 159.8 mg/dL
  RALB: 2.7 g/dL
  TBIL: 0.032 mg/dL
  TC: 77.8 mg/dL
  TG: 135 mg/dL
  TP: 6 g/dL
  gamma-GTP: 1 IU/L
Time 14 day
  KIDNEY_L: 1.2 g
  KIDNEY_R: 1.2 g
  KIDNEY_TOTAL: 2.5 g
  LIVER: 14.8 g
  A/G: 0.8
  ALP: 1670 IU/L
  ALT: 39.2 IU/L
  AST: 64.2 IU/L
  BUN: 16.4 mg/dL
  CRE: 0.2 mg/dL
  Ca: 11.1 mg/dL
  Cl: 105.2 meq/L
  DBIL: 0.02 mg/dL
  GLC: 194 mg/dL
  IP: 7.7 mg/dL
  K: 4.1 meq/L
  LDH: 103.6 IU/L
  Na: 143.4 meq/L
  PL: 160.8 mg/dL
  RALB: 2.8 g/dL
  TBIL: 0.034 mg/dL
  TC: 77 mg/dL
  TG: 153 mg/dL
  TP: 6.1 g/dL
  gamma-GTP: 1 IU/L
Time 28 day
  KIDNEY_L: 1.4 g
  KIDNEY_R: 1.4 g
  KIDNEY_TOTAL: 2.8 g
  LIVER: 15.6 g
  A/G: 0.8
  ALP: 1190.6 IU/L
  ALT: 38.6 IU/L
  AST: 63.8 IU/L
  BUN: 17 mg/dL
  CRE: 0.2 mg/dL
  Ca: 10.6 mg/dL
  Cl: 107.6 meq/L
  DBIL: 0.014 mg/dL
  GLC: 186.2 mg/dL
  IP: 6.2 mg/dL
  K: 4 meq/L
  LDH: 70.4 IU/L
  Na: 145 meq/L
  PL: 156.2 mg/dL
  RALB: 2.8 g/dL
  TBIL: 0.028 mg/dL
  TC: 75.2 mg/dL
  TG: 148 mg/dL
  TP: 6.4 g/dL
  gamma-GTP: 0.8 IU/L
